Measured values: patent publication US7410949B2, “Neuropeptide-2 receptor (Y-2R) agonists and uses thereof” (Hoffmann-La Roche Inc., priority 2005, dated 2008)
*1 amine or outer side, *2 acyl side, *3 side chain or, on linkers, in order; H or OH if unused. Where a SMILES comes first, the peptide text is derived from it. Bridges are numbered along the chain shown (N, C = ends). [ ]: non-standard residue; d: D form. X1 = O=C(COc1ccc2[nH]cc(CCN[*:1])c2c1)[*:2]; Nle = CCCC[C@H](N)C(=O)O

What was measured:
hypothalamic slices = hypothalamic slices in vitro; cited from earlier work
Y4R = Y4R (Homo sapiens, UniProt P50391); assay: FLIPR assay, Y4R; type: cell-based
Y4R, sequence (P50391 whole entry): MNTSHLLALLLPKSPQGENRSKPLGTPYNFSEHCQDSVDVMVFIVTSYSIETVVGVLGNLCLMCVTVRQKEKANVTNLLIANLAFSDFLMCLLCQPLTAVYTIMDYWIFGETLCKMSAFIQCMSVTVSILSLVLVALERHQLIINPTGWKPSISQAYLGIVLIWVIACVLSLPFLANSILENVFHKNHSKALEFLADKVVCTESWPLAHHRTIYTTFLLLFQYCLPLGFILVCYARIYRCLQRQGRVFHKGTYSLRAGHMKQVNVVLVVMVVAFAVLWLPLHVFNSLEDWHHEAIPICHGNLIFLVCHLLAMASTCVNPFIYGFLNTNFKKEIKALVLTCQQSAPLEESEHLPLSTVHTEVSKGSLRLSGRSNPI
Method: (§1) Loading Buffer (Calcium-3 Assay Kit, Molecular Devices) was prepared by dissolving the contents of one vial (Express Kit) into 1000 ml Hank's Balanced Salt Solution containing 20 mM HEPES and 5 mM probenecid. Aliquots of 25 μL of diluted dye was dispensed into the cell plates and the plates are then incubated for 1 hour at 37° C.
(§2) During the incubation, test compounds were prepared at 3.5× the desired concentration in HBSS (20 mM HEPES)/0.05% BSA/1% DMSO and transferred to a 384 well plate for use on FLIPR.
(§3) After incubation, both the cell and compound plates were brought to the FLIPR and 20 μL of the diluted compounds were transferred to the cell plates by the FLIPR. During the assay, fluorescence readings were taken simultaneously from all 384 wells of the cell plate every 1.5 seconds. Five readings were taken to establish a stable baseline, and then 20 μL of sample was rapidly (30 μL/sec) and simultaneously added to each well of the cell plate. The fluorescence was continuously monitored before, during and after sample addition for a total elapsed time of 100 seconds. Responses (increase in peak fluorescence) in each well following addition was determined. The initial fluorescence reading from each well, prior to ligand stimulation, was used as a zero baseline value for the data from that well. The responses are expressed as % of maximal response of the positive control.

Y1R = target: T1, Y1R (Homo sapiens, UniProt P25929); assay: FLIPR assay, Y1R; type: cell-based
T1 sequence (P25929 1-384): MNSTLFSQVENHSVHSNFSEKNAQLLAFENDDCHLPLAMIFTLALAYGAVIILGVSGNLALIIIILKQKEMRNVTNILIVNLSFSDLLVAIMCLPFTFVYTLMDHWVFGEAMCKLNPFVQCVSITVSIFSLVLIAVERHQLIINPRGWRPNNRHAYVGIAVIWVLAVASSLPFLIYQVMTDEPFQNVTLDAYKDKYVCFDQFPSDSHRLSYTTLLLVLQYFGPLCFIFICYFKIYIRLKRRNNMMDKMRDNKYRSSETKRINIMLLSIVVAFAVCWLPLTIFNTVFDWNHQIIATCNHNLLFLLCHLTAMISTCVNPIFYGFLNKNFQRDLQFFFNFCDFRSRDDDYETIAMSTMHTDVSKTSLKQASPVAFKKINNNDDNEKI
Method: as §1, §2, §3

[1] = test system: C57BL/6J male mice or DIO (diet-induced obese) male mice; assay: In Vivo Reduction of Food Intake Assay; design: species or system mouse
Method: In this Example, compounds of Examples 5, 44, 73 and 74 were administered to four sets of mice in four separate experiments to measure effect on food intake. C57BL/6J male mice or DIO (diet-induced obese) male mice were used in the experiments, with eight mice per experimental group. The mice were maintained on a regular light cycle (6 AM—ON; 6 PM—OFF). The mice were fasted for 24 hours prior to testing with ad lib access to water. During the test, mice were housed one per cage.
The compounds of Examples 5 and 44 were administered intraperitoneally; and the compounds of Examples 73 and 74 were administered subcutaneously. In each Figure, cumulative and time interval food consumptions were measured in individual mice. Mean food consumption and percent change from vehicle were calculated for each time interval. Data was analyzed by using two-tailed Student t-test.

[2] = administered intraperitoneally, mice fasted 24 hours, 1, 2, 4, 6 and 24 hours after dosing
[3] = administered subcutaneously, mice fasted 24 hours, 1, 2, 4, 6, 24 hours and longer intervals

Row | Compound | reduction of food intake [1, 2] | reduction of food intake [1, 3] | other results
1 | N=C(N)NCCC[C@H](NC(=O)CC1(CC(=O)N2CCN(C3c4ccccc4NC(=O)c4ccccc43)CC2)CCCC1)C(=O)NCCn1c(=O)n(-c2ccccc2)n(-c2ccccc2)c1=O (stereo partly shown) [BIIE0246] |  |  | NPY release (hypothalamic slices): increases NPY release
2 | CCCC[C@H](NC(=O)[C@@H](NC(C)=O)[C@@H](C)CC)C(=O)NCCc1c[nH]c2ccc(OCC(=O)N[C@@H](CCCNC(=N)N)C(=O)N[C@@H](Cc3c[nH]cn3)C(=O)N[C@@H](Cc3ccc(O)cc3)C(=O)N[C@H]3CCCCNC(=O)C[C@@H](C(=O)N[C@@H](CCCNC(=N)N)C(=O)N[C@@H](CCC(N)=O)C(=O)N[C@@H](CCCNC(=N)N)C(=O)N[C@@H](Cc4ccc(O)cc4)C(N)=O)NC(=O)[C@H](C(C)C)NC(=O)[C@H](CC(C)C)NC(=O)[C@H](CC(N)=O)NC3=O)cc12 [Example 53] (Ac-I[Nle][X1]RHYKNLVDRQRY-NH2; lactam 7-11) |  |  | EC50 (Y4R): > 5 µM; EC50 (Y1R): > 5 µM
3 | Ac-Ile-Nle-Pqa-Arg-His-Tyr-Leu-Asn-Leu-Val-Thr-Arg-Gln-Arg-Tyr-NH2 [Example 44] | reduction of food intake was demonstrated |  | 
4 | H-Ile-Lys-Pqa-Arg-His-Tyr-Leu-Asn-Leu-Val-Thr-Arg-Gln-Arg-Tyr-NH2 [Example 5] | reduction of food intake was demonstrated |  | 
5 | PEG (10,000)-Ile-Nle-Pqa-Arg-His-Tyr-Leu-Asn-Leu-Val-Thr-Arg-Gln-Arg-Tyr-NH2 [Example 73] |  | reduction of food intake was demonstrated | 
6 | PEG (30,000)-Ile-Nle-Pqa-Arg-His-Tyr-Leu-Asn-Leu-Val-Thr-Arg-Gln-Arg-Tyr-NH2 [Example 74] |  | reduction of food intake was demonstrated | 
